Entries after “also recorded” stand apart in the source; their conditions may differ.
Tests used:
[1] = tested on: H3K4 trimethylation machinery (H3K4me3 indicator); test: H3K4 trimethylation (H3K4me3) indicator reporter allele, FACS; format: cell-based
Description: An H3K4 trimethylation reporter was also created (FIG. 5B). This reporter is based on the H3 tail on one end and the TBP associated factor III (TAFIII) […] on the other end; the TAFIII […] only identifies and binds to trimethylated K4 on H3. When the H3K4 site gets trimethylated, the TAFIII […] can bind to the modified H3 tail and bring the two parts of the separated GFP in close proximity. The activity of the epigenetic modification system can be quantified through fluorescence.
Epigenetic reporter alleles were synthesized (OriGene, Rockville, Md.) using published sequences for component elements (Baird et al. (1999) Proc. Natl. Acad. Sci. 96:11241-6; Souslova et al. (2007) BMC Biotechnol. 7:37). Single nucleotide mutations were created using the QuickChange Lightening kit (Agilent Technologies Inc, Santa Clara, Calif.). […] FACS data were analyzed using FlowJo (Tree Star Inc, Ashland, Oreg.). […]
Epigenetic reporter systems were created that monitor either H4 acetylation or H3K4 trimethylation machinery activity in an effort to determine whether there is an ongoing activity deficiency in cells from Kmt2d^+/βGeo mice (FIG. 18A). Both reporter alleles encode halves of green fluorescent protein separated by a flexible linker region (Baird et al. (1999) Proc. Natl. Acad. Sci. 96: 11241-6) with a histone tail and a histone reader at the N- and C-termini, respectively. […]

[2] = tested on: Klf10 expression; test: Real-time PCR of Kmt2d target gene Klf10 in spleen cells; format: in vivo, mouse; settings: AR-42 treatment (10 mg/kg/day); FIG. 26
Procedure: Real-time PCR was performed using Kmt2d-specific probes for exons 20 and 52 (Mm_02600438 and Mm_01717664, respectively) from TaqMan® Gene Expression Assays (Life Technologies, Carlsbad, Calif.). For a comparison of transfection efficiencies for indicator constructs in transient transfection studies, real-time PCR was performed using SYBR Green Real-Time PCR Master Mix (Life Technologies, Carlsbad, Calif.) and primers IND-F-([…]; SEQ ID NO: 5) and IND-R-([…]; SEQ ID NO: 6) that are specific for the H3K4 methylation indicator. For expression analysis for KMT2D target gene KLF10, real-time PCR was performed using Klfl0-specific expression assay (Mm00449812_m1) from TaqMan® Gene Expression Assays (Life Technologies, Carlsbad, Calif.).

cell numbers ([1]; at higher doses, FIG. 18F (red line)): decreased cell numbers
Compound: CC(C)[C@H](C(=O)Nc1ccc(C(=O)NO)cc1)c1ccccc1 [AR-42, (S)—N-hydroxy-4-(3-methyl-2-phenylbutanamido)benzamide]
H3K4me3 indicator response to increasing levels of drug ([1]; FIG. 18F): dose dependent response
Klf10 expression in spleen cells of Kmt2d+/βGeo mice [2]: normalization of expression of Klf10; also recorded: normalized

— patent publication US11357748B2, “Methods for treating mendelian disorders of the epigenetic machinery” (THE JOHNS HOPKINS UNIVERSITY, priority 2014, dated 2022)
